Results published in patent US9981972B2, “N-hydroxy bicyclic hydantoin carbamates as tools for identification of serine hydrolase targets” (ABIDE THERAPEUTICS, INC., priority 2014, dated 2018).
Entries after “also recorded” stand apart in the source; their conditions may differ.

Assays:
LYPLA1 = target: T1, LYPLA1 (Mus musculus, UniProt P97823); test: Gel-based competitive ABPP in vitro, mouse brain membrane proteome; type: biochemical; conditions: 30 min, one replicate
T1 construct: a complex proteome endogenously expressing LYPLA1/2 was incubated with test compound; from tissue; host or cells: mouse brain, membrane fraction
T1 sequence (P97823 whole entry): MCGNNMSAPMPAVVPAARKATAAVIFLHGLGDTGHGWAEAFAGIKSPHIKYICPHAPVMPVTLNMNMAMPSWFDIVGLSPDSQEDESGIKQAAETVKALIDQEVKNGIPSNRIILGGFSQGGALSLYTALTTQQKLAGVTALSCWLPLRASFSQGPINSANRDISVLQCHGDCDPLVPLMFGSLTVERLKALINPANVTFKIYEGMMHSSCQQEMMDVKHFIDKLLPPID
Outline: (§1)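 Mouse brain membrane proteome (1 mg/mL in DPBS) was treated with compound (0.1-100 μM) for 30 min at 37 °C, then labeled with FP-Rh (2 μM final, 30 min, 25 °C). Bands were resolved by SDS-PAGE and scanned in-gel, with inhibition taken from band optical density versus DMSO. Targets counted as active or anti-targets at ≥50% inhibition.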

LYPLA2 = target: T2, LYPLA2 (Mus musculus, UniProt Q9WTL7); test: as above; type: biochemical; conditions: 30 min, one replicate
T2 construct: a complex proteome endogenously expressing LYPLA1/2 was incubated with test compound; from tissue; host or cells: mouse brain, membrane fraction
T2 sequence (Q9WTL7 whole entry): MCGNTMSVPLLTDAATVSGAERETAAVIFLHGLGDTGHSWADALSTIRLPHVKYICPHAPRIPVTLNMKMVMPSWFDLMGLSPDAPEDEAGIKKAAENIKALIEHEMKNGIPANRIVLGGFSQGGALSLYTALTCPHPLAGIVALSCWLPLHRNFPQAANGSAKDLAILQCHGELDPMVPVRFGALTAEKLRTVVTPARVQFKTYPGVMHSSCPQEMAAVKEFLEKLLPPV
Outline: as §1

human SHs = test: ABPP-SILAC analysis to identify SH targets of Compound 5; type: biochemical
Description: Compound 5 was selected for analysis by mass spectrometry (MS)-based ABPP methods to assess the range of SHs targeted by N-Hydroxy bicyclic hydantoin carbamates.

[1] = test system: FP-sensitive SHs in the mouse brain membrane proteome; test: Gel-based competitive ABPP in vitro, mouse brain membrane proteome, anti-targets; type: biochemical
Outline: as §1

PPT1 (wild type, S115A) [2] = test: Labeling of recombinant PPT1 by probes (gel-based ABPP, isoTOP-ABPP); type: biochemical, human; conditions: transfected HEK293T lysates, CuAAC to azide-Rh, PNGaseF
Protocol: (§2) HEK293T cells were seeded at 2×10^5 per well on 6 well plates and grown for 48 h. They were then transfected with mABHD3 (pCMV-Sport6), hABHD4 (pcDNA3.1/myc-his), hPPT1 (pCMV6-XL5), or hPPT1 S115A (pCMV6-XL5), by incubating 0.5 μg of DNA with 3 μL of PEI MAX (1 mg/mL, Polysciences, Inc) in serum-free DMEM for 30 min, then adding them to cells. After 48 h cells were either treated with compound in situ, as described above, or harvested for in vitro studies. The […] PPT1 mutation was introduced using QuikChange II Site Directed Mutagenesis Kit (Agilent) with the following primers: […]
(§3) Whole cell lysates (500 μL, 1.5 mg/mL) of hPPT1 transfected HEK239Ts were processed for MS analysis using the previously described isoTOP-ABPP protocol (Weerapana et al., Nature 468, 790-795, 2010). In brief, for analysis of Compound 39-modified peptides, proteomes were split into two fractions, to which Compound 39 (5 μM, 60 min) or DMSO were added. […] MS1 peaks for probe-labeled quantified peptides were extracted with Xcalibur Qual Browser 2.2 (Thermo Scientific). […]
(§4) HEK293T cells were transfected with wild type and an S115A mutant of PPT1, lysed, and treated with Compound 39 followed by CuAAC conjugation to an azide-Rh tag, PNGaseF treatment, and analysis by SDS-PAGE. […] S115 was identified as the site of Compound 39 labeling on PPT1 using a quantitative MS method termed isoTOP-ABPP. […]

PPT1 (wild type, S115A) [3] = target: T3, PPT1 (wild type, S115A) (Homo sapiens, UniProt P50897); test: as above; type: biochemical; conditions: transfected HEK293T cell lysates, gel-based ABPP
T3 construct: expressed in transfected cells; host or cells: HEK293T
T3 sequence (P50897 28-306 S115A): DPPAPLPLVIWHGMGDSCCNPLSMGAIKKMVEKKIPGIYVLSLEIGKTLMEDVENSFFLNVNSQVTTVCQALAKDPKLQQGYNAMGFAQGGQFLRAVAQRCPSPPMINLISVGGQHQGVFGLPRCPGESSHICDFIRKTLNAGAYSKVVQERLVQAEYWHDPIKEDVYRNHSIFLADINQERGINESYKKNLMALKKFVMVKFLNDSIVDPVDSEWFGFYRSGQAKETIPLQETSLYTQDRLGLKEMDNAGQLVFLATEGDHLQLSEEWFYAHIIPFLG
Protocol: as §2, §3, §4

[4] = test system: SHs in PC3 cell proteomes; test: Probe-versus-probe ABPP-SILAC, PC3 proteomes; type: biochemical, human; conditions: Compound 39 5 μM, 1 h versus FP-biotin 2.5 μM
Protocol: Isotopically heavy- and light-labeled PC3 cells were treated with Compound 37 (1 μM) or DMSO for 4 h, respectively, lysed, and then treated Compound 39 (5 μM, 1 h). […] Among the handful of additional SH targets of Compound 37 were ABHD6 and PLA2G7, which were expected based on our ABPP-SILAC studies with FP-biotin (see FIG. 9), and protein-palmitoyl thioesterase 1 (PPT1), which was inhibited by more than 90%. […] Accordingly, PPT1 was not detected in our previous ABPP-SILAC studies with FP-biotin (see FIG. 9). The selective enrichment of PPT1 by Compound 39 was confirmed by performing a probe-versus-probe ABPP-SILAC study, where heavy and light PC3 proteomes were treated with FP-biotin (2.5 μM, 1 h) and Compound 39 (5 μM, 1 h), respectively. PPT1, along with two additional SHs LIPA and DDHD2, were preferentially enriched by Compound 39 over FP-biotin, while most of the other SHs were more strongly enriched by FP-biotin (see FIG. 13). A handful of SHs corresponding mostly to enzymes that were identified in our ABPP-SILAC studies as targets of Compound 37 (see FIGS. 9 and 12), were equivalently enriched by Compound 39 and FP-biotin (see FIG. 13).

ABHD4 = target: T4, ABHD4 (Homo sapiens, UniProt Q8TB40); test: Gel-based competitive ABPP, recombinant enzyme in transfected HEK293T cell lysates; type: biochemical; design: myc-his; expressed in transfected cells; host or cells: HEK293T, transient transfection, pcDNA3.1/myc-his; lysate used in vitro; conditions: competitive ABPP with FP-Rh, 30 min 37° C.
T4 sequence (Q8TB40 1-342): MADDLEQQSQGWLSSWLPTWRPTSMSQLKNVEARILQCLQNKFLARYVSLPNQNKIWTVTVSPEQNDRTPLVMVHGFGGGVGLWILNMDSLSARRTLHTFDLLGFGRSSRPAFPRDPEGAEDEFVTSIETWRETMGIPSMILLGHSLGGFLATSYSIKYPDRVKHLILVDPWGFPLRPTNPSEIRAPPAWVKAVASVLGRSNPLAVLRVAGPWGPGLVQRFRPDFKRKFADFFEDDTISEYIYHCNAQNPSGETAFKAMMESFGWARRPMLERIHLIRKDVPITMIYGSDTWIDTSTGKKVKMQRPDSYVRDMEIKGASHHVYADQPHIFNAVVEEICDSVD
Protocol: as §2
Human ABHD3 and ABHD4 were recombinantly expressed by transient transfection in HEK293T cells, and the cell lysates were combined to provide a convenient assay for monitor inhibition of both enzymes by gel-based ABPP (see FIG. 8A). […]

Structure (SMILES)	inhibition at 0.1 µM (LYPLA1; 0.1 μM compound, read-out: LYPLA1 % INH 0.1 μM) [%]	inhibition at 1 µM (LYPLA1; 1 μM compound, read-out: LYPLA1 % INH 1 μM) [%]	inhibition at 10 µM (LYPLA1; 10 μM compound, read-out: LYPLA1 % INH 10 μM) [%]	inhibition at 100 µM (LYPLA1; 100 μM compound, read-out: LYPLA1 % INH 100 μM) [%]	inhibition at 0.1 µM (LYPLA2; 0.1 μM compound, read-out: LYPLA2 % INH 0.1 μM) [%]	inhibition at 1 µM (LYPLA2; 1 μM compound, read-out: LYPLA2 % INH 1 μM) [%]	inhibition at 10 µM (LYPLA2; 10 μM compound, read-out: LYPLA2 % INH 10 μM) [%]	inhibition at 100 µM (LYPLA2; 100 μM compound, read-out: LYPLA2 % INH 100 μM) [%]	SHs inhibited by Compound 5 (three-fold or greater decrease in signal) (human SHs)	Anti-target(s) 0.1 μM ([1]; SHs with at least 50% inhibition at 0.1 μM compound)	Anti-target(s) 1 μM ([1]; SHs with at least 50% inhibition at 1 μM compound)	Anti-target(s) 10 μM ([1]; SHs with at least 50% inhibition at 10 μM compound)	Anti-target(s) 100 μM ([1]; SHs with at least 50% inhibition at 100 μM compound)	labeling of wild type PPT1 versus S115A mutant (PPT1 (wild type, S115A) [2])	probe reactivity with recombinant hPPT1 (PPT1 (wild type, S115A) [3])	SHs preferentially enriched by Compound 39 over FP-biotin [4]	inhibition of ABHD4 in transfected HEK293T cell proteome (ABHD4)
CC(C)(C)OC(=O)N1CCN2C(=O)N(OC(=O)N3CCC(CCc4ccc(Cl)cc4)CC3)C(=O)C2C1 (centres unmarked) [Compound 5, tert-butyl 2-(4-(4-chlorophenethyl)piperidine-1-carbonyloxy)-1,3-dioxohexahydroimidazo[1,5-a]pyrazine-7(1H)-carboxylate]	50	80	100	100	50	80	100	100	ABHD6 and MGLL and ABHD4 and ABHD12 and PLA2G15 and PNPLA4	ABHD6	FAAH,; also recorded: ABHD6	FAAH,; also recorded: ABHD12,; also recorded: ABHD6	FAAH,; also recorded: ABHD12,; also recorded: MAGL,; also recorded: ABHD6	–	–	–	–
C#CCOc1ccc(N2CCN(C(=O)ON3C(=O)C4CN(Cc5ccc(Oc6ccccc6)cc5)CCN4C3=O)CC2)cc1 (centres unmarked) [Compound 39, 1,3-dioxo-7-(4-phenoxybenzyl)hexahydroimidazo[1,5-a]pyrazin-2(3H)-yl 4-(4-(prop-2-yn-1-yloxy)phenyl)piperazine-1-carboxylate]	–	–	–	–	–	–	–	–	–	–	–	–	–	labels recombinant wild type PPT1, but not the catalytic serine mutant (S115A); also recorded: strong labeling of wild-type PPT1, but not the S115A mutant	reacts; also recorded: reacted with PPT1	PPT1 and LIPA and DDHD2	inhibited ABHD4 in transfected HEK293T cell proteome in a concentration-dependent manner
